# Paper PMC6161010, “A Simple and Sensitive Liquid Chromatography with Tandem Mass Spectrometric Method for the Simultaneous Determination of Anthraquinone Glycosides and Their Aglycones in Rat Plasma: Application to a Pharmacokinetic Study of Rumex acetosa Extract” (Pharmaceutics, 2018)
# Where two headings read alike, the source gives them in different places.
# What was measured:
# [1] = Pharmacokinetic study after oral administration of R. acetosa extract to rats; type: in vivo, Sprague‒Dawley rats; details: oral R. acetosa extract 2 g/kg; for plasma concentrations (in words) / MRT / half-life / Tmax / first time detected in plasma of every rat (first sampling time) / time from which plasma concentrations were below the LLOQ / time until which the analyte could be detected in plasma: rat; for MRT / half-life / Cmax / AUC(0-t): n = 3, mean ± SD; for Cmax / AUC(0-t): rat plasma; for AUC(0-t): last measured time points for C, E, CG, PG 6, 24, 8, 6 h
# Protocol: The analysis was performed on an Agilent 1260 series (Agilent Technologies, Waldbronn, Germany) HPLC system. Chromatographic separation of the samples was carried out on a Kinetex Biphenyl column (100 × 3.0 mm, 2.6 μm, 110 Å, Phenomenex, Torrance, CA, USA). The mobile phase consisted of 2 mM ammonium formate (pH 6) in water (A) and 2 mM ammonium formate (pH 6) in methanol (B). The gradient program was used at a flow rate of 0.3 mL/min while maintaining the column temperature at 40 °C. The mobile phase initial composition of 25% B was maintained for 2 min. It was then increased linearly from 25% to 95% B for 0.5 min and held for 7 min. The gradient was then changed back to the initial condition for 0.5 min and kept at the initial condition for 3 min. The total analysis time was 13 min for each sample. The injection volume was 15 μL.
# The mass spectrometric detection was performed on an Agilent 6460 triple-quadruple mass spectrometer (Agilent Technologies, Singapore) with an electrospray ionization source. It was operated in the negative ion detection mode because of its higher sensitivity than that in the positive ionization mode on multiple reaction monitoring (MRM). The data were acquired and processed using Mass Hunter Workstation B.06.00 software (Agilent Technologies, Singapore). The source parameters were also optimized as follows: a drying gas flow and temperature at 6 L/min and 350 °C were used, respectively; the sheath gas flow and temperature were maintained at 12 L/min and 350 °C, respectively; the nebulizing gas (N2) pressure was set at 25 psi; and the capillary and nozzle voltages were set at 3500 V and 500 V, respectively.
# To 20 μL aliquot of the rat plasma samples, 60 μL of 5 ng/mL IS in methanol was added. The mixture was vortexed for 30 s and kept at 4 °C for 30 min. The mixture was centrifuged at 10,000× g for 10 min. The supernatant was transferred to an HPLC vial, and 15 μL of the processed sample was injected onto the LC-MS/MS system.
# Male Sprague‒Dawley rats (8-week-old, weighing 250 ± 10 g) were obtained from Koatech (Pyeongtaek, Korea). They were housed and acclimated in the Animal Laboratory, Gyeongsang National University, under controlled temperature and humidity and regular 12 h light cycle, freely accessible to food and water for 7 days before the experiment. The rats were cannulated into the carotid artery and allowed to recover for one day. Before the pharmacokinetic study, all rats were fasted for 12 h with free access to water. R. acetosa extract suspended in a solution (ethanol:polysorbate 80:water = 1:2:7, v/v/v) was orally administered to the three rats at a dose of 2 g/kg. The calculated doses of compounds based on the contents in the extract were 18.8, 25.8, 13.6, 15.4, 3.4, and 8.2 mg/kg for E, EG, C, CG, P, and PG, respectively. Blood samples (100 µL) were collected via the cannulated carotid vessel at 0, 15, 30, 45 min, 1, 2, 3, 4, 6, 8, 12, and 24 h after oral administration. To collect plasma, the blood samples were immediately centrifuged at 10,000× g for 5 min. All plasma samples were stored at −80 °C until analysis. All experimental procedures of the animal study were approved (GNU-130618-R0038) by the Animal Care and Use Committee of Gyeongsang National University, Korea.
# [2] = Stability of the analytes in rat plasma (method validation); type: in vitro ADME; details: n = 3; for Processed Sample Stability, Accuracy: processed rat plasma sample, 4 °C 24 h; for Short Term Stability, Accuracy / Freeze and Thaw Stability, Accuracy / Long Term Stability, Accuracy: rat plasma; for Short Term Stability, Accuracy: room temperature 4 h; for Freeze and Thaw Stability, Accuracy: three freeze-thaw cycles −80 °C to room temperature; for Long Term Stability, Accuracy: −80 °C one month
# Protocol: (§1) The stability of the analytes in rat plasma was evaluated by analyzing triplicates of three QC levels at room temperature for 4 h (short-term stability), −80 °C for one month (long-term stability), three freeze-thaw cycles from −80 °C to room temperature (freeze and thaw stability), and 4 °C for 24 h (processed sample stability). The stability of analytes in stock solution was also evaluated. The peak areas obtained from freshly prepared stock solutions were compared with stock solutions stored for 4 h at room temperature.
# [3] = Stability of analytes in stock solution; type: physicochemical; details: stock solutions stored at room temperature for 4 h, n = 3
# Protocol: The primary stock solutions of E, EG, C, CG, P, PG, and IS were prepared in dimethyl sulfoxide at a concentration of 1 mg/mL and stored at −80 °C. The mixture stock solutions to obtain the standard solutions were serially diluted in methanol. The IS stock solution of 5 ng/mL was prepared in methanol. The calibration standards were prepared by spiking 10 μL of above standard solutions into 90 μL of blank rat plasma to yield concentration ranges of 1–300 ng/mL for E, 20–300 ng/mL for P and C, 1–150 ng/mL for EG, 10–150 ng/mL for CG and PG. Twenty microliters of aliquots were prepared and stored at −80 °C until analysis.
# as §1
# [4] = set-up: method as in doi:10.1039/C5RA27273D; details: hyperlipidemic hamsters after administration of rhubarb; cited from earlier work
# [5] = set-up: method as in PMID 19921750; details: after administration of emodin 40 mg/kg; rapidly and extensively metabolized to its glucuronide; cited from earlier work
# [6] = high QC (P, E, C 300; PG, EG, CG 150 ng/mL)
# [7] = low QC (P, C 60; E, EG 3; PG, CG 30 ng/mL)
# [8] = middle QC (P, E, C 150; PG, EG, CG 75 ng/mL)
# [9] = male, Sprague-Dawley, plasma, read-out: Median Tmax (converted)
# [10] = male, Sprague-Dawley, plasma, n = 3, median (range), read-out: Tmax
Compound,plasma concentrations (in words) [1],"Processed Sample Stability, Accuracy [2, 6] [%]","Processed Sample Stability, Accuracy [2, 7] [%]","Processed Sample Stability, Accuracy [2, 8] [%]","Short Term Stability, Accuracy [2, 6] [%]","Short Term Stability, Accuracy [2, 7] [%]","Short Term Stability, Accuracy [2, 8] [%]","Freeze and Thaw Stability, Accuracy [2, 6] [%]","Freeze and Thaw Stability, Accuracy [2, 7] [%]","Freeze and Thaw Stability, Accuracy [2, 8] [%]","Long Term Stability, Accuracy [2, 6] [%]","Long Term Stability, Accuracy [2, 7] [%]","Long Term Stability, Accuracy [2, 8] [%]",mean concentration in stock solution compared with fresh stock solutions [3] [%],"MRT ([1]; male, Sprague-Dawley, plasma) [h]","half-life ([1]; male, Sprague-Dawley, plasma) [h]","Tmax [1, 9] [h]","Cmax ([1]; male, Sprague-Dawley) [ng/mL]","AUC(0-t) ([1]; male, Sprague-Dawley) [ng·h/mL]",first time detected in plasma of every rat (first sampling time) [1] [min],further results
"Cc1cc(O)c2c(c1)C(=O)c1cc(O)cc(O[C@@H]3O[C@H](CO)[C@@H](O)[C@H](O)[C@H]3O)c1C2=O [EG, emodin-8-O-β-D-glucoside]",not high enough to determine the pharmacokinetic parameters,100.3,91.5,107.9,98.9,99.8,108.5,100.9,100.4,112.3,102.8,102.9,107.9,100.4,–,–,–,–,–,–,detection in plasma (in words) [4]: not detected
"Cc1cc(O)c2c(c1)C(=O)c1cccc(O)c1C2=O [C, chrysophanol]",–,102.3,101.5,103.7,101.2,103.5,98.6,92.4,89.7,91.8,102.6,104.3,97.9,95.9,2.4 ± 0.2,3.9 ± 0.6,0.25,156 ± 86,266 ± 70.9,15,"time from which plasma concentrations were below the LLOQ [1]: 6 h; Tmax ([1]; n = 3, median (range)): 0.25 (0.25–0.5) h"
"Cc1cc(O)c2c(c1)C(=O)c1cccc(O[C@@H]3O[C@H](CO)[C@@H](O)[C@H](O)[C@H]3O)c1C2=O [CG, chrysophanol-8-O-β-D-glucoside]",–,96.7,91.1,100.2,101.8,97.6,96.9,97.0,98.3,101.0,101.5,97.5,100.6,101.7,2.4 ± 0.08,4.8 ± 0.5,–,28.7 ± 4.7,158 ± 12.3,15,"Tmax [1, 10]: 2 h; time until which the analyte could be detected in plasma [1]: 8 h"
"COc1cc(O[C@@H]2O[C@H](CO)[C@@H](O)[C@H](O)[C@H]2O)c2c(c1)C(=O)c1cc(C)cc(O)c1C2=O [PG, physcion-8-O-β-D-glucoside]",–,96.8,98.8,92.7,96.7,98.9,91.8,93.6,101.5,94.3,97.1,97.7,98.5,102.4,2.7 ± 0.6,6.2 ± 3.9,–,20.5 ± 1.4,82.8 ± 13.8,15,"Tmax [1, 10]: 0.75 h; time from which plasma concentrations were below the LLOQ [1]: 6 h"
"Cc1cc(O)c2c(c1)C(=O)c1cc(O)cc(O)c1C2=O [E, emodin]",–,104.6,108.2,108.0,101.8,103.2,100.7,102.0,107.5,104.5,107.7,106.8,107.8,94.8,7.7 ± 3,–,0.25,124 ± 41.7,1160 ± 336,15,"time until which the analyte could be detected in plasma [1]: 24 h; Tmax ([1]; n = 3, median (range)): 0.25 (0.25–0.75) h; time until which the analyte could be detected [4]: 36 h; detection of the parent form (in words) [5]: almost undetectable"
"COc1cc(O)c2c(c1)C(=O)c1cc(C)cc(O)c1C2=O [P, physcion]",not high enough to determine the pharmacokinetic parameters,102.7,102.2,101.6,103.8,104.9,98.9,104.2,103.6,103.9,98.0,107.3,100.1,99.2,–,–,–,–,–,–,–
